Species on record: Rattus norvegicus
Test: Open TG-GATES - Regimen: Daily Repeat
Type: toxicity, organism-based, Sprague-Dawley
Design: regimen Daily Repeat, gender Male, age 6 weeks
Conditions: in vivo, po, 1000 mg/kg, route gavage, dose level Middle; for Bas / Eos / Hb / Ht / Lym / MCH / MCHC / MCV / Mono / Neu / Plat / RBC / Ret / WBC: tissue Blood; for KIDNEY_L / KIDNEY_R / KIDNEY_TOTAL: tissue Kidney; for LIVER: tissue Liver; for A/G / ALP / ALT / AST / BUN / CRE / Ca / Cl / DBIL / GLC / IP / K / LDH / Na / PL / RALB / TBIL / TC / TG / TP / gamma-GTP: tissue Plasma

What does the source list for CC(N)=O [ACETAMIDE]?
TERMINAL_BW (72 h, time 3 day): 241.7 g; Bas (72 h, time 3 day): 0%; Eos (72 h, time 3 day): 0.6%; Hb (72 h, time 3 day): 12.4 g/dL; Ht (72 h, time 3 day): 38.2%; Lym (72 h, time 3 day): 75.6%; MCH (72 h, time 3 day): 20.1 pg; MCHC (72 h, time 3 day): 32.4%; MCV (72 h, time 3 day): 62 fL; Mono (72 h, time 3 day): 3.8%; Neu (72 h, time 3 day): 19%; Plat (72 h, time 3 day): 119 x10_4/uL; RBC (72 h, time 3 day): 617.4 x10_4/ul; Ret (72 h, time 3 day): 7.8%; WBC (72 h, time 3 day): 118.5 x10_2/uL; KIDNEY_L (72 h, time 3 day): 1 g; KIDNEY_R (72 h, time 3 day): 1 g; KIDNEY_TOTAL (72 h, time 3 day): 2 g; LIVER (72 h, time 3 day): 11.3 g; A/G (72 h, time 3 day): 1; ALP (72 h, time 3 day): 1645.6 IU/L; ALT (72 h, time 3 day): 50.4 IU/L; AST (72 h, time 3 day): 84 IU/L; BUN (72 h, time 3 day): 17.2 mg/dL; CRE (72 h, time 3 day): 0.1 mg/dL; Ca (72 h, time 3 day): 10.9 mg/dL; Cl (72 h, time 3 day): 104.4 meq/L; DBIL (72 h, time 3 day): 0 mg/dL; GLC (72 h, time 3 day): 186 mg/dL; IP (72 h, time 3 day): 6.7 mg/dL; K (72 h, time 3 day): 4.4 meq/L; LDH (72 h, time 3 day): 228.8 IU/L; Na (72 h, time 3 day): 140.3 meq/L; PL (72 h, time 3 day): 161.8 mg/dL; RALB (72 h, time 3 day): 2.8 g/dL; TBIL (72 h, time 3 day): 0.004 mg/dL; TC (72 h, time 3 day): 82.2 mg/dL; TG (72 h, time 3 day): 130.3 mg/dL; TP (72 h, time 3 day): 5.6 g/dL; gamma-GTP (72 h, time 3 day): 0.9 IU/L; TERMINAL_BW ([…], time 7 day): 269.7 g; TERMINAL_BW ([…], time 14 day): 332.5 g; TERMINAL_BW ([…], time 28 day): 409 g; Bas ([…], time 7 day): 0%; Eos ([…], time 7 day): 0.8%; Hb ([…], time 7 day): 13 g/dL; Ht ([…], time 7 day): 39.6%; Lym ([…], time 7 day): 79.2%; MCH ([…], time 7 day): 20 pg; MCHC ([…], time 7 day): 32.8%; MCV ([…], time 7 day): 60.8 fL; Mono ([…], time 7 day): 2.4%; Neu ([…], time 7 day): 17.2%; Plat ([…], time 7 day): 113.6 x10_4/uL; RBC ([…], time 7 day): 650.4 x10_4/ul; Ret ([…], time 7 day): 6.5%; WBC ([…], time 7 day): 128.6 x10_2/uL; Bas ([…], time 14 day): 0%; Eos ([…], time 14 day): 1%; Hb ([…], time 14 day): 13.3 g/dL; Ht ([…], time 14 day): 39.8%; Lym ([…], time 14 day): 81%; MCH ([…], time 14 day): 19.7 pg; MCHC ([…], time 14 day): 33.4%; MCV ([…], time 14 day): 59.2 fL; Mono ([…], time 14 day): 2.8%; Neu ([…], time 14 day): 14.2%; Plat ([…], time 14 day): 118.6 x10_4/uL; RBC ([…], time 14 day): 672.6 x10_4/ul; Ret ([…], time 14 day): 4.8%; WBC ([…], time 14 day): 106.1 x10_2/uL; Bas ([…], time 28 day): 0%; Eos ([…], time 28 day): 1%; Hb ([…], time 28 day): 14.5 g/dL; Ht ([…], time 28 day): 43.1%; Lym ([…], time 28 day): 81.6%; MCH ([…], time 28 day): 18.9 pg; MCHC ([…], time 28 day): 33.7%; MCV ([…], time 28 day): 56.2 fL; Mono ([…], time 28 day): 2.4%; Neu ([…], time 28 day): 14.4%; Plat ([…], time 28 day): 93.5 x10_4/uL; RBC ([…], time 28 day): 767.8 x10_4/ul; Ret ([…], time 28 day): 2.8%; WBC ([…], time 28 day): 140.9 x10_2/uL; KIDNEY_L ([…], time 7 day): 1.2 g; KIDNEY_R ([…], time 7 day): 1.2 g; KIDNEY_TOTAL ([…], time 7 day): 2.4 g; KIDNEY_L ([…], time 14 day): 1.3 g; KIDNEY_R ([…], time 14 day): 1.4 g; KIDNEY_TOTAL ([…], time 14 day): 2.7 g; KIDNEY_L ([…], time 28 day): 1.6 g; KIDNEY_R ([…], time 28 day): 1.6 g; KIDNEY_TOTAL ([…], time 28 day): 3.1 g; LIVER ([…], time 7 day): 11.7 g; LIVER ([…], time 14 day): 14 g; LIVER ([…], time 28 day): 15.5 g; A/G ([…], time 7 day): 1; ALP ([…], time 7 day): 2048.4 IU/L; ALT ([…], time 7 day): 47.4 IU/L; AST ([…], time 7 day): 87.2 IU/L; BUN ([…], time 7 day): 16 mg/dL; CRE ([…], time 7 day): 0.1 mg/dL; Ca ([…], time 7 day): 10.7 mg/dL; Cl ([…], time 7 day): 104.7 meq/L; DBIL ([…], time 7 day): 0 mg/dL; GLC ([…], time 7 day): 186.2 mg/dL; IP ([…], time 7 day): 6.4 mg/dL; K ([…], time 7 day): 4.2 meq/L; LDH ([…], time 7 day): 199 IU/L; Na ([…], time 7 day): 142.7 meq/L; PL ([…], time 7 day): 168 mg/dL; RALB ([…], time 7 day): 2.8 g/dL; TBIL ([…], time 7 day): 0 mg/dL; TC ([…], time 7 day): 83.6 mg/dL; TG ([…], time 7 day): 141.4 mg/dL; TP ([…], time 7 day): 5.7 g/dL; gamma-GTP ([…], time 7 day): 0.7 IU/L; A/G ([…], time 14 day): 0.9; ALP ([…], time 14 day): 1740 IU/L; ALT ([…], time 14 day): 43.8 IU/L; AST ([…], time 14 day): 79.2 IU/L; BUN ([…], time 14 day): 18.4 mg/dL; CRE ([…], time 14 day): 0.2 mg/dL; Ca ([…], time 14 day): 10.5 mg/dL; Cl ([…], time 14 day): 104.6 meq/L; DBIL ([…], time 14 day): 0 mg/dL; GLC ([…], time 14 day): 180.8 mg/dL; IP ([…], time 14 day): 6.4 mg/dL; K ([…], time 14 day): 4.3 meq/L; LDH ([…], time 14 day): 285.4 IU/L; Na ([…], time 14 day): 142.1 meq/L; PL ([…], time 14 day): 153.6 mg/dL; RALB ([…], time 14 day): 2.8 g/dL; TBIL ([…], time 14 day): 0.002 mg/dL; TC ([…], time 14 day): 83 mg/dL; TG ([…], time 14 day): 135.3 mg/dL; TP ([…], time 14 day): 5.7 g/dL; gamma-GTP ([…], time 14 day): 0.7 IU/L; A/G ([…], time 28 day): 0.9; ALP ([…], time 28 day): 1250.4 IU/L; ALT ([…], time 28 day): 48.6 IU/L; AST ([…], time 28 day): 81 IU/L; BUN ([…], time 28 day): 16.8 mg/dL; CRE ([…], time 28 day): 0.2 mg/dL; Ca ([…], time 28 day): 10.3 mg/dL; Cl ([…], time 28 day): 103.7 meq/L; DBIL ([…], time 28 day): 0.006 mg/dL; GLC ([…], time 28 day): 197.2 mg/dL; IP ([…], time 28 day): 5.2 mg/dL; K ([…], time 28 day): 4 meq/L; LDH ([…], time 28 day): 207 IU/L; Na ([…], time 28 day): 142 meq/L; PL ([…], time 28 day): 148.2 mg/dL; RALB ([…], time 28 day): 2.8 g/dL; TBIL ([…], time 28 day): 0.006 mg/dL; TC ([…], time 28 day): 75.2 mg/dL; TG ([…], time 28 day): 122 mg/dL; TP ([…], time 28 day): 6.1 g/dL; gamma-GTP ([…], time 28 day): 0.9 IU/L

Reference: ChEMBL document CHEMBL3885861, “Open TG-GATES”
